Measurements published in paper PMC9229919, “4-Aminoquinoline-Based Adamantanes as Potential Anticholinesterase Agents in Symptomatic Treatment of Alzheimer’s Disease” (Pharmaceutics, 2022).
Read-outs that look alike come from different tables or passages of the source.

Experiments:
[1] = standard compounds of the interpolation method; cited from earlier work
[2] = Ferric reducing antioxidant power (FRAP) assay; details: for FRAP: mean ± standard error of three experiments;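 on FRAP: expressed as µM Fe2+ equivalents from an FeSO4·7H2O standard curve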
Summary of the method: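 Ferric-TPTZ reduction measured by absorbance at 593 nm after 60 min at 37 °C in pH 3.6 acetate-buffered TPTZ/FeCl3 reagent, with test compounds at 10 and 100 µM. FRAP values calculated from an Fe2SO4·7H2O standard curve. Data from three independent experiments.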

purified human BChE [3] = biological target: T1, purified human BChE (Homo sapiens, UniProt P06276); experiment: biochemical; type: biochemical
T1 construct: possibly also a gift of Dr Florian Nachon (the sentence is ambiguous)
Summary of the method: (§1)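 Modified Ellman assay with acetylthiocholine and DTNB in 0.1 M sodium phosphate pH 7.4 (enzymes diluted with 0.1% BSA), ≤0.2% DMSO, 25 °C. At least three inhibitor concentrations per substrate level; Ki,app from Hunter–Downs equation, Ki from y-intercept and inhibition type from Ki,app vs [S].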

recombinant human AChE = biological target: T2, recombinant human AChE (Homo sapiens, UniProt P22303); experiment: biochemical; type: biochemical; details: for IS: IS = Ki(BChE)/Ki(AChE), IS > 1 selective to AChE
T2 construct: gift of Dr Florian Nachon (Armed Forces Biomedical Research Institute, Brétigny-sur-Orge, France)
Summary of the method: as §1

[4] = Reverse-phase thin-layer chromatographic lipophilicity (RF, RM0); type: physicochemical; details: for RM0: intercept of RM = RM0 + bC; for b: slope of RM = RM0 + bC; for RF, Methanol/Water/Hydrochloric acid (conc.), mobile phase I / RF, Dioxane/Water/Hydrochloric acid (conc.), mobile phase II / RF, Methanol/Water/Hydrochloric acid (conc.), mobile phase II / RF, Acetone/Water/Hydrochloric acid (conc.), mobile phase III / RF, Dioxane/Water/Hydrochloric acid (conc.), mobile phase III / RF, Methanol/Water/Hydrochloric acid (conc.), mobile phase III / RF, Dioxane/Water/Hydrochloric acid (conc.), mobile phase IV / RF, Acetone/Water/Hydrochloric acid (conc.), mobile phase IV / RF, Methanol/Water/Hydrochloric acid (conc.), mobile phase IV / RF, Acetone/Water/Hydrochloric acid (conc.), mobile phase IX / RF, Methanol/Water/Hydrochloric acid (conc.), mobile phase IX / RF, Dioxane/Water/Hydrochloric acid (conc.), mobile phase V / RF, Acetone/Water/Hydrochloric acid (conc.), mobile phase V / RF, Methanol/Water/Hydrochloric acid (conc.), mobile phase V / RF, Dioxane/Water/Hydrochloric acid (conc.), mobile phase VI / RF, Acetone/Water/Hydrochloric acid (conc.), mobile phase VI / RF, Methanol/Water/Hydrochloric acid (conc.), mobile phase VI / RF, Acetone/Water/Hydrochloric acid (conc.), mobile phase VII / RF, Methanol/Water/Hydrochloric acid (conc.), mobile phase VII / RF, Acetone/Water/Hydrochloric acid (conc.), mobile phase VIII / RF, Methanol/Water/Hydrochloric acid (conc.), mobile phase VIII: RP-18 silica; for RF, Methanol/Water/Hydrochloric acid (conc.), mobile phase I: I = 90%MeOH/5%H2O/5%HCl; for RF, Dioxane/Water/Hydrochloric acid (conc.), mobile phase II: II = 80%Dioxane/15%H2O/5%HCl; for RF, Methanol/Water/Hydrochloric acid (conc.), mobile phase II: II = 85%MeOH/10%H2O/5%HCl; for RF, Acetone/Water/Hydrochloric acid (conc.), mobile phase III: III = 70%AC/25%H2O/5%HCl; for RF, Dioxane/Water/Hydrochloric acid (conc.), mobile phase III: III = 70%Dioxane/25%H2O/5%HCl; for RF, Methanol/Water/Hydrochloric acid (conc.), mobile phase III: III = 80%MeOH/15%H2O/5%HCl; for RF, Dioxane/Water/Hydrochloric acid (conc.), mobile phase IV: IV = 60%Dioxane/35%H2O/5%HCl; for RF, Acetone/Water/Hydrochloric acid (conc.), mobile phase IV: IV = 65%AC/30%H2O/5%HCl; for RF, Methanol/Water/Hydrochloric acid (conc.), mobile phase IV: IV = 75%MeOH/20%H2O/5%HCl; for RF, Acetone/Water/Hydrochloric acid (conc.), mobile phase IX: IX = 40%AC/55%H2O/5%HCl; for RF, Methanol/Water/Hydrochloric acid (conc.), mobile phase IX: IX = 50%MeOH/45%H2O/5%HCl; for RF, Dioxane/Water/Hydrochloric acid (conc.), mobile phase V: V = 50%Dioxane/45%H2O/5%HCl; for RF, Acetone/Water/Hydrochloric acid (conc.), mobile phase V: V = 60%AC/35%H2O/5%HCl; for RF, Methanol/Water/Hydrochloric acid (conc.), mobile phase V: V = 70%MeOH/25%H2O/5%HCl; for RF, Dioxane/Water/Hydrochloric acid (conc.), mobile phase VI: VI = 40%Dioxane/55%H2O/5%HCl; for RF, Acetone/Water/Hydrochloric acid (conc.), mobile phase VI: VI = 55%AC/40%H2O/5%HCl; for RF, Methanol/Water/Hydrochloric acid (conc.), mobile phase VI: VI = 65%MeOH/30%H2O/5%HCl; for RF, Acetone/Water/Hydrochloric acid (conc.), mobile phase VII: VII = 50%AC/45%H2O/5%HCl; for RF, Methanol/Water/Hydrochloric acid (conc.), mobile phase VII: VII = 60%MeOH/35%H2O/5%HCl; for RF, Acetone/Water/Hydrochloric acid (conc.), mobile phase VIII: VIII = 45%AC/50%H2O/5%HCl; for RF, Methanol/Water/Hydrochloric acid (conc.), mobile phase VIII: VIII = 55%MeOH/40%H2O/5%HCl
Summary of the method: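 Lipophilicity from RP-TLC retention at 22±2 °C over a 4.5 cm development distance. Eluents: organic modifier (methanol, acetone or dioxane), water and hydrochloric acid, methanol stepped by 10%. RM0 obtained from RF.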

purified human BChE [5] = biological target: T1, purified human BChE; set-up: method as in PMID 31600664; details: previously tested derivative 2 (CQAd); ref [38]; cited from earlier work
[6] = logarithm of Ki in µM, BChE, dependent variable of the QSAR model, read-out: Y Measured 2 log(ki)Bche, log (Ki/µM BChE) (converted)
[7] = ± standard error, 25 °C, ATCh substrate, read-out: Ki BChE
[8] = log (Ki/µM AChE), read-out: Y Measured 1 log(ki)Ache (converted)
[9] = ± standard error, 25 °C, ATCh substrate, read-out: Ki AChE
[10] = Acetone/Water/Hydrochloric acid (conc.)
[11] = Dioxane/Water/Hydrochloric acid (conc.)
[12] = Methanol/Water/Hydrochloric acid (conc.)

T2 sequence (P22303 32-614): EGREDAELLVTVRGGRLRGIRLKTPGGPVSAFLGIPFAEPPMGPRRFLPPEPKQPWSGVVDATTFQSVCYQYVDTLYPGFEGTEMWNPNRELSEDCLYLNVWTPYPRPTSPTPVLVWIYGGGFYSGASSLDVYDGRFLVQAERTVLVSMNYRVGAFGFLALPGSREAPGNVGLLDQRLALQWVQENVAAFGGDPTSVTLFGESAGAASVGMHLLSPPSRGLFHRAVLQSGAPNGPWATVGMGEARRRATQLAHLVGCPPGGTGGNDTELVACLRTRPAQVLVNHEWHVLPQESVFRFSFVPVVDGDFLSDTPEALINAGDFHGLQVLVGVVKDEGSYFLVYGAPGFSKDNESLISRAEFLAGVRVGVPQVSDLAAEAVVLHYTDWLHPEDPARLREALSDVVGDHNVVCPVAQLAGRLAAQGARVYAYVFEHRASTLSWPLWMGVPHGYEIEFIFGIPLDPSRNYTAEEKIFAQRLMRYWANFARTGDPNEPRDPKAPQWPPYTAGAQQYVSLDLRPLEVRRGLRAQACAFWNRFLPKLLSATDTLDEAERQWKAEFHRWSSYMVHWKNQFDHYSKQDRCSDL
T1 sequence (P06276 29-602): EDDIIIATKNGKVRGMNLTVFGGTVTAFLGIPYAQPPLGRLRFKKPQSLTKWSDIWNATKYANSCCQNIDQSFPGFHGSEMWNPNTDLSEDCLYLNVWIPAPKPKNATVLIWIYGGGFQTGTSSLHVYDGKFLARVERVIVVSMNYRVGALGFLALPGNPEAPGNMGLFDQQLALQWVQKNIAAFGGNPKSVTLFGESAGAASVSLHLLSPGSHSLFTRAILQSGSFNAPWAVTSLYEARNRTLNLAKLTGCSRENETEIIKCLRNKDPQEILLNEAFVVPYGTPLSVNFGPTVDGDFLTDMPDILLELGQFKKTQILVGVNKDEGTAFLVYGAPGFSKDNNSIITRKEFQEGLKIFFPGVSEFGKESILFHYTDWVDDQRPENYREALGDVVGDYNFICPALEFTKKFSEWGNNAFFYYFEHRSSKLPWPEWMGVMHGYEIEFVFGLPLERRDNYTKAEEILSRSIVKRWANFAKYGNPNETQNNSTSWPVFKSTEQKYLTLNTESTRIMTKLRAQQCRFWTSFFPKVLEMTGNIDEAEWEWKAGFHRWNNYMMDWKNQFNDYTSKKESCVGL

SMILES	logP [1]	FRAP ([2]; 10 µM compound) [µM]	FRAP ([2]; 100 µM compound) [µM]	Ki (purified human BChE [3]; [6]) [µM]	IS (recombinant human AChE)	RM0 [4, 10]	b [4, 10]	RM0 [4, 11]	b [4, 11]	RM0 [4, 12]	b [4, 12]	RF, Methanol/Water/Hydrochloric acid (conc.), mobile phase I [4]	RF, Dioxane/Water/Hydrochloric acid (conc.), mobile phase II [4]	RF, Methanol/Water/Hydrochloric acid (conc.), mobile phase II [4]	RF, Acetone/Water/Hydrochloric acid (conc.), mobile phase III [4]	RF, Dioxane/Water/Hydrochloric acid (conc.), mobile phase III [4]	RF, Methanol/Water/Hydrochloric acid (conc.), mobile phase III [4]	RF, Dioxane/Water/Hydrochloric acid (conc.), mobile phase IV [4]	RF, Acetone/Water/Hydrochloric acid (conc.), mobile phase IV [4]	RF, Methanol/Water/Hydrochloric acid (conc.), mobile phase IV [4]	also measured
c1ccc2c(c1)Cc1ccccc1-2 [fluoren]	4.18	–	–	–	–	–	–	–	–	–	–	–	–	–	–	–	–	–	–	–	–
c1ccc2c(c1)ccc1ccccc12 [fenantren]	4.46	–	–	–	–	–	–	–	–	–	–	–	–	–	–	–	–	–	–	–	–
O=C1CN=C(c2ccccc2Cl)c2cc([N+](=O)[O-])ccc2N1 [klonazepam]	2.41	–	–	–	–	–	–	–	–	–	–	–	–	–	–	–	–	–	–	–	pKa1 [1]: 10.5; pKa2 [1]: 1.5
Oc1cccc2ccccc12 [Compound 1-naftol]	–	–	–	–	–	–	–	–	–	–	–	–	–	–	–	–	–	–	–	–	pKa1 [1]: 9.34
Oc1ccc(Cl)cc1Cl [2,4-dihlorfenol]	–	–	–	–	–	–	–	–	–	–	–	–	–	–	–	–	–	–	–	–	pKa1 [1]: 7.89
c1ccc2cc3ccccc3cc2c1 [antracen]	4.45	–	–	–	–	–	–	–	–	–	–	–	–	–	–	–	–	–	–	–	–
Clc1ccc2c(N3CCN(CCC45CC6CC(CC(C6)C4)C5)CC3)ccnc2c1 [Compound 21]	–	6.0 ± 2.0	15 ± 5	5.6	2.7	1.611	2.562	0.7539	1.607	2.219	2.906	0.68	0.73	0.65	0.59	0.71	0.51	0.71	0.53	0.51	Ki (purified human BChE [3]; [7]): 5.6 ± 0.6 µM; Ki (recombinant human AChE; [8]): 2.1 µM; Ki (recombinant human AChE; [9]): 2.1 ± 0.4 µM; RF, Acetone/Water/Hydrochloric acid (conc.), mobile phase IX [4]: 0.17; RF, Methanol/Water/Hydrochloric acid (conc.), mobile phase IX [4]: 0.12; RF, Dioxane/Water/Hydrochloric acid (conc.), mobile phase V [4]: 0.52; RF, Acetone/Water/Hydrochloric acid (conc.), mobile phase V [4]: 0.44; RF, Methanol/Water/Hydrochloric acid (conc.), mobile phase V [4]: 0.45; RF, Dioxane/Water/Hydrochloric acid (conc.), mobile phase VI [4]: 0.39; RF, Acetone/Water/Hydrochloric acid (conc.), mobile phase VI [4]: 0.4; RF, Methanol/Water/Hydrochloric acid (conc.), mobile phase VI [4]: 0.36; RF, Acetone/Water/Hydrochloric acid (conc.), mobile phase VII [4]: 0.35; RF, Methanol/Water/Hydrochloric acid (conc.), mobile phase VII [4]: 0.27; RF, Acetone/Water/Hydrochloric acid (conc.), mobile phase VIII [4]: 0.29; RF, Methanol/Water/Hydrochloric acid (conc.), mobile phase VIII [4]: 0.18
Clc1ccc2c(NCCCNCC34CC5CC(CC(C5)C3)C4)ccnc2c1 [Compound 2]	–	19 ± 2	64 ± 5	3.2	4.2	1.795	2.949	0.8129	1.796	2.34	3.123	0.73	0.78	0.67	0.61	0.73	0.52	0.73	0.58	0.53	less potent inhibitors of BChE than compounds 3 or 4 (purified human BChE [3]): about 3.2 times; Y Measured 1 log(ki)Ache (recombinant human AChE; log (Ki/µM AChE)): -1.14E-01; RF, Acetone/Water/Hydrochloric acid (conc.), mobile phase IX [4]: 0.15; RF, Methanol/Water/Hydrochloric acid (conc.), mobile phase IX [4]: 0.11; RF, Dioxane/Water/Hydrochloric acid (conc.), mobile phase V [4]: 0.55; RF, Acetone/Water/Hydrochloric acid (conc.), mobile phase V [4]: 0.5; RF, Methanol/Water/Hydrochloric acid (conc.), mobile phase V [4]: 0.47; RF, Dioxane/Water/Hydrochloric acid (conc.), mobile phase VI [4]: 0.4; RF, Acetone/Water/Hydrochloric acid (conc.), mobile phase VI [4]: 0.41; RF, Methanol/Water/Hydrochloric acid (conc.), mobile phase VI [4]: 0.43; RF, Acetone/Water/Hydrochloric acid (conc.), mobile phase VII [4]: 0.35; RF, Methanol/Water/Hydrochloric acid (conc.), mobile phase VII [4]: 0.25; RF, Acetone/Water/Hydrochloric acid (conc.), mobile phase VIII [4]: 0.3; RF, Methanol/Water/Hydrochloric acid (conc.), mobile phase VIII [4]: 0.19; Ki (purified human BChE [5]): 3.2 ± 0.4 µM
Clc1ccc2c(NCCCCCCCCNCC34CC5CC(CC(C5)C3)C4)ccnc2c1 [Compound 5]	–	9.5 ± 1.9	82 ± 4	0.0912	1.2	2.706	4.173	1.151	2.214	3.7376	4.663	0.67	0.78	0.62	0.55	0.7	0.42	0.7	0.49	0.44	increase in BChE inhibition vs compounds 3 and 4 (purified human BChE [3]): about 9 times; more potent BChE inhibitor than galantamine (purified human BChE [3]; comparator ref [63]): 12 times; Ki (purified human BChE [3]; [7]): 0.091 ± 0.007 µM; less potent AChE inhibitor than donepezil and tacrine (recombinant human AChE): 2 to 3 times; Ki (recombinant human AChE; [8]): 0.0759 µM; increase in AChE inhibition potency (recombinant human AChE; n-octylene spacer vs unbranched compounds with shorter spacer): about 12 times; Ki (recombinant human AChE; [9]): 0.075 ± 0.06 µM; RF, Acetone/Water/Hydrochloric acid (conc.), mobile phase IX [4]: 0.04; RF, Methanol/Water/Hydrochloric acid (conc.), mobile phase IX [4]: 0.02; RF, Dioxane/Water/Hydrochloric acid (conc.), mobile phase V [4]: 0.47; RF, Acetone/Water/Hydrochloric acid (conc.), mobile phase V [4]: 0.39; RF, Methanol/Water/Hydrochloric acid (conc.), mobile phase V [4]: 0.34; RF, Dioxane/Water/Hydrochloric acid (conc.), mobile phase VI [4]: 0.31; RF, Acetone/Water/Hydrochloric acid (conc.), mobile phase VI [4]: 0.32; RF, Methanol/Water/Hydrochloric acid (conc.), mobile phase VI [4]: 0.23; RF, Acetone/Water/Hydrochloric acid (conc.), mobile phase VII [4]: 0.28; RF, Methanol/Water/Hydrochloric acid (conc.), mobile phase VII [4]: 0.11; RF, Acetone/Water/Hydrochloric acid (conc.), mobile phase VIII [4]: 0.19; RF, Methanol/Water/Hydrochloric acid (conc.), mobile phase VIII [4]: 0.07
Clc1ccc2c(Nc3cccc(NCC45CC6CC(CC(C6)C4)C5)c3)ccnc2c1 [Compound 18]	–	22 ± 6	300 ± 32	5.5	0.6	2.074	3.191	1.102	2.114	2.664	3.468	0.71	0.75	0.68	0.55	0.71	0.5	0.7	0.5	0.49	antioxidant power lower than that of Trolox ([2]; on average): ~20 times; decrease in BChE inhibition vs compound 5 (purified human BChE [3]): up to 275 times; Ki (purified human BChE [3]; [7]): 5.5 ± 0.6 µM; Ki (recombinant human AChE; [8]): 8.99 µM; Ki (recombinant human AChE; [9]): 9 ± 0.8 µM; RF, Acetone/Water/Hydrochloric acid (conc.), mobile phase IX [4]: 0.1; RF, Methanol/Water/Hydrochloric acid (conc.), mobile phase IX [4]: 0.09; RF, Dioxane/Water/Hydrochloric acid (conc.), mobile phase V [4]: 0.48; RF, Acetone/Water/Hydrochloric acid (conc.), mobile phase V [4]: 0.4; RF, Methanol/Water/Hydrochloric acid (conc.), mobile phase V [4]: 0.41; RF, Dioxane/Water/Hydrochloric acid (conc.), mobile phase VI [4]: 0.3; RF, Acetone/Water/Hydrochloric acid (conc.), mobile phase VI [4]: 0.36; RF, Methanol/Water/Hydrochloric acid (conc.), mobile phase VI [4]: 0.34; RF, Acetone/Water/Hydrochloric acid (conc.), mobile phase VII [4]: 0.3; RF, Methanol/Water/Hydrochloric acid (conc.), mobile phase VII [4]: 0.22; RF, Acetone/Water/Hydrochloric acid (conc.), mobile phase VIII [4]: 0.21; RF, Methanol/Water/Hydrochloric acid (conc.), mobile phase VIII [4]: 0.13
